Experimental data as given in patent US11945800B1, “1-cyclopropyl-6-fluoro-4-oxo-7-(4-((5-oxo-2-phenyl-4-(quinolin-2-ylmethylene)-4,5-dihydro-1H-imidazol-1-yl)methyl)piperazin-1-yl)-1,4-dihydroquinoline-3-carboxylic acid as an anti-inflammatory and anticancer compound” (KING FAISAL UNIVERSITY, priority 2023, dated 2024).

Experiments:
[1] = tested on: human prostate cancer cells (PC3); experiment: Cytotoxicity by SRB assay, prostate cancer cells; type: cell-based; conditions: for IC50: PC-3, 72 h, mean±SD
Procedure: (§1) The human prostate cancer cells (PC3) and human osteosarcoma cells (MG-63) were obtained from Nawah Scientific Inc. (Mokatam, Cairo, Egypt) and cultured in DMEM (Dulbecco's modified eagle's medium), Gibco, USA, supplemented with fetal bovine serum (FBS) at a concentration of 10% and 100 U/mL of penicillin and streptomycin (PS). The Cells were incubated at 37° C. in a humidified environment that contained 5% CO2.
(§2) The anticancer activity of 1-cyclopropyl-6-fluoro-4-oxo-7-(4-((5-oxo-2-phenyl-4-(quinolin-2-ylmethylene)-4,5-dihydro-1H-imidazol-1-yl)methyl)piperazin-1-yl)-1,4-dihydroquinoline-3-carboxylic acid was assessed against highly aggressive androgen-independent metastatic human prostate cancer cells (PC3) and osteosarcoma (MG-63) cells.
(§3) Cells were seeded in 96-well plates as aliquots of 100 μL cell suspension and incubated in a complete media for 24 h. afterward, cells were treated with 1-cyclopropyl-6-fluoro-4-oxo-7-(4-((5-oxo-2-phenyl-4-(quinolin-2-ylmethylene)-4,5-dihydro-1H-imidazol-1-yl)methyl)piperazin-1-yl)-1,4-dihydroquinoline-3-carboxylic acid at diverse concentrations ranging from 0.01 μM to 100 μM for 72 h. Then, cells were fixed at 4° C. for one hour with 150 μL of 10% trichloroacetic acid (TCA). After washing the cells five times with distilled water, 70 μL of sulforhodamine (SRB) solution (0.4% w/v) was added and incubated for 10 min at room temperature in a dark place. Cells were washed with 1% acetic acid three times and allowed to air-dry. Then, 150 μL of Tris pH 10.5 (10 mM) was added, and the absorbance was measured at 540 nm using a BMG LABTECH®-FLUOstar Omega microplate reader (Ortenberg, Germany). Half maximal inhibitory concentrations (IC50) values were calculated for each experiment using GraphPad Prism 6 software. IC50 values were reported as mean±SD.
(§4) The inhibition was calculated using the following equation: Inhibition %=100−Average Viability

[2] = tested on: human osteosarcoma cells (MG-63); experiment: Cytotoxicity by SRB assay, osteosarcoma cells; type: cell-based; conditions: MG-63, 72 h, mean±SD
Procedure: as §1, §2, §3, §4

[3] = molecular target: Bovine Serum Albumin (Bos taurus, UniProt P02769); experiment: Bovine Serum Albumin assay (BSA), inhibition of protein denaturation; type: biochemical; conditions: pH 6.4, read-out: percentage inhibition of precipitation (protein denaturation)
Chain of Bovine Serum Albumin (P02769 25-607): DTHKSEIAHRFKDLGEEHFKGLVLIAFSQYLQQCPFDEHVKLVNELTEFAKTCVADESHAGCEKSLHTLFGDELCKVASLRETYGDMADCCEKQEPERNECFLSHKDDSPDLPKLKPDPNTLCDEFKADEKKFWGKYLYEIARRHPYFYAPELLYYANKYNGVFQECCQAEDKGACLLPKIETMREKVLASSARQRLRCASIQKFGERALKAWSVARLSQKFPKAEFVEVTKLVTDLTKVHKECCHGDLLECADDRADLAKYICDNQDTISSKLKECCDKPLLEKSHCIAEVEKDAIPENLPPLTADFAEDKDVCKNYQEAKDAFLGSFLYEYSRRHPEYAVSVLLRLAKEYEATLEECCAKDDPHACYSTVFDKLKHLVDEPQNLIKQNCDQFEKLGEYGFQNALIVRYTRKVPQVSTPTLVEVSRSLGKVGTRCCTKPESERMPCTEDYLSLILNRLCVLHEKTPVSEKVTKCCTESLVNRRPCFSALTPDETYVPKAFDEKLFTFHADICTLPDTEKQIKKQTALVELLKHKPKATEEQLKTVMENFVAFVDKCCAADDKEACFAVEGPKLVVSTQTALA
Procedure: In vitro-inflammatory activities of the tested samples were determined using a modified method of the BSA assay reported by Williams et al. BSA solution (0.4%, w/v) was prepared in Tris Buffered Saline. The pH was adjusted to 6.4 with glacial acetic acid. Different dilutions of 20, 40, 60, 80, and 100 μg/mL of the stock solutions were added to test tubes containing 1 mL of 0.4%, w/v BSA buffer solution. Both negative (solvent) and positive (aspirin) controls were assayed in a similar manner. The solutions were then heated in a water bath at 72° C. for 10 minutes and cooled for 20 minutes under laboratory conditions. The turbidity of the solutions (level of protein precipitation) was measured at 660 nm in Spectrophotometer (V-770 UV-Visible/NIR Spectrophotometer).
The percentage inhibition of precipitation (protein denaturation) was determined relative to the negative control using the following equation: […]

Row | Compound | IC50 ([1]; Homo sapiens, 72 h) [µM] | IC50 ([2]; Homo sapiens) [µM] | inhibition at 10 µg/mL ([1]; Homo sapiens, 72 h, Prostate cancer (PC-3), 10 μg/ml) [%] | IC50 ([1]; listed as Our Product) [µM] | Inhibition % ([1]; Prostate cancer (PC-3), 10 μg/ml, 72 h) [%] | IC50 ([2]; listed as Our Product) [µM] | inhibition at 100 µg/mL [3] [%] | melting point [°C]
1 | COc1cccc2c1C(=O)c1c(O)c3c(c(O)c1C2=O)C[C@@](O)(C(=O)CO)C[C@@H]3O[C@H]1C[C@H](N)[C@H](O)[C@H](C)O1 [DOX, Doxorubicin, reference compound] | 7.6 ± 0.45 | 9.4 ± 1.1 |  |  |  |  |  | 
2 | O=C(O)c1cn(C2CC2)c2cc(N3CCN(CN4C(=O)/C(=C\c5ccc6ccccc6n5)N=C4c4ccccc4)CC3)c(F)cc2c1=O [Compound 4, 1-cyclopropyl-6-fluoro-4-oxo-7-(4-((5-oxo-2-phenyl-4-(quinolin-2-ylmethylene)-4,5-dihydro-1H-imidazol-1-yl)methyl)piperazin-1-yl)-1,4-dihydroquinoline-3-carboxylic acid] | < 4 | < 4 | 94 | 2.88 ± 0.03 | 94.32 | 3.38 ± 0.2 | 88.1 | 231 to 235
